Columns and labels:
Conditions in all cases: 72 h
Calu-3 [1] = assay: drug sensitivity score (DSS) for viability; higher = more toxic; extreme values may be limits of the assay
Caco-2 [2] = assay: as above
HepG2 [3] = assay: as above
Vero E6 [4] = assay: as above
U2OS [5] = assay: as above
Calu-3 [6] = assay: relative viability EC50 (midpoint between 100% and the lowest measured viability); higher = less toxic
Calu-3 [7] = assay: cell viability relative to DMSO; higher = less toxic
HepG2 [8] = assay: as above
U2OS [9] = assay: as above
HepG2 [10] = assay: relative viability EC50 (midpoint between 100% and the lowest measured viability); higher = less toxic
U2OS [11] = assay: as above
Caco-2 [12] = assay: cell viability relative to DMSO; higher = less toxic
Vero E6 [13] = assay: as above
Vero E6 [14] = assay: relative viability EC50 (midpoint between 100% and the lowest measured viability); higher = less toxic

Row | Structure (SMILES) | drug sensitivity score (Calu-3 [1]) | drug sensitivity score (Caco-2 [2]) | drug sensitivity score (HepG2 [3]) | drug sensitivity score (Vero E6 [4]) | drug sensitivity score (U2OS [5]) | relative viability EC50 (Calu-3 [6]) [µM] | cell viability (Calu-3 [7]; 1 nM) [%] | cell viability (Calu-3 [7]; 10 nM) [%] | cell viability (Calu-3 [7]; 100 nM) [%] | cell viability (Calu-3 [7]; 1000 nM) [%] | cell viability (Calu-3 [7]; 10000 nM) [%] | cell viability (HepG2 [8]; 1 nM) [%] | cell viability (HepG2 [8]; 10 nM) [%] | cell viability (HepG2 [8]; 100 nM) [%] | cell viability (HepG2 [8]; 1000 nM) [%] | cell viability (HepG2 [8]; 10000 nM) [%] | cell viability (U2OS [9]; 1 nM) [%] | cell viability (U2OS [9]; 10 nM) [%] | cell viability (U2OS [9]; 100 nM) [%] | cell viability (U2OS [9]; 1000 nM) [%] | cell viability (U2OS [9]; 10000 nM) [%] | relative viability EC50 (HepG2 [10]) [µM] | relative viability EC50 (U2OS [11]) [µM] | cell viability (Caco-2 [12]; 1 nM) [%] | cell viability (Caco-2 [12]; 10 nM) [%] | cell viability (Caco-2 [12]; 100 nM) [%] | cell viability (Caco-2 [12]; 1000 nM) [%] | cell viability (Caco-2 [12]; 10000 nM) [%] | cell viability (Vero E6 [13]; 1 nM) [%] | cell viability (Vero E6 [13]; 10 nM) [%] | cell viability (Vero E6 [13]; 100 nM) [%] | cell viability (Vero E6 [13]; 1000 nM) [%] | cell viability (Vero E6 [13]; 10000 nM) [%] | relative viability EC50 (Vero E6 [14]) [nM]
1 | COc1cc2ncnc(Nc3ccc(F)c(Cl)c3)c2cc1OCCCN1CCOCC1 [gefitinib] | 13.1 | 4.1 | 3.9 | 9.3 | 2.1 | 0.414 | – | – | – | – | – | – | – | – | – | – | – | – | – | – | – | – | – | – | – | – | – | – | – | – | – | – | – | –
2 | CC[C@H]1[C@@H](O)[C@@H]2[C@H](CC[C@]3(C)[C@@H]([C@H](C)CCOS(=O)(=O)O)CC[C@@H]23)[C@@]2(C)CC[C@@H](O)C[C@@H]12 [INT-767] | 0 | – | 0 | – | 0 | > 10 | 110 | 107 | 108 | 105 | 99.5 | 115 | 118 | 96.2 | 99.4 | 111 | 102 | 98.1 | 102 | 101 | 101 | > 10 | > 10 | – | – | – | – | – | – | – | – | – | – | –
3 | N=C(N)NS(=O)(=O)c1ccc(N)cc1 [sulfaguanidine] | 0 | – | 0 | 0 | 0 | – | – | – | – | – | – | – | – | – | – | – | – | – | – | – | – | – | – | – | – | – | – | – | – | – | – | – | – | –
4 | CC(O)(CS(=O)(=O)c1ccc(F)cc1)C(=O)Nc1ccc(C#N)c(C(F)(F)F)c1 (configuration not stated) [bicalutamide] | 0 | – | 0 | 0 | 0 | – | – | – | – | – | – | – | – | – | – | – | – | – | – | – | – | – | – | – | – | – | – | – | – | – | – | – | – | –
5 | CCn1c(=O)c(-c2ccc(Cl)cc2Cl)cc2cnc(Nc3ccc(N4CCNCC4)c(F)c3)nc21 [FRAX486] | 0 | 3.9 | 2.6 | 5.3 | 4.5 | > 10 | 104 | 100 | 105 | 91.9 | 97.9 | 96.6 | 97.8 | 93.1 | 99.3 | 51.6 | 103 | 99.8 | 101 | 91.6 | 43 | – | 2.01 | 94.9 | 92.4 | 97.7 | 80 | 63.4 | 97 | 102 | 99.6 | 90.9 | 31.7 | 2090
6 | Cn1ncc(Cl)c1-c1cc(C(=O)N[C@H](CN)Cc2ccc(F)c(F)c2)oc1Cl [uprosertib] | 5.8 | 6.5 | 3.3 | 0.8 | 1.4 | 0.693 | 104 | 107 | 78.4 | 80.5 | 49.9 | 101 | 97.4 | 101 | 85.2 | 68.4 | 95.1 | 99.8 | 94.5 | 96.5 | 76.3 | – | > 10 | 98.7 | 99.3 | 86.2 | 71.5 | 53.9 | 106 | 102 | 102 | 94.9 | 83.6 | > 10000
7 | CC(=O)O[C@]1(C(C)=O)CC[C@H]2[C@@H]3C=C(C)C4=CC(=O)CC[C@]4(C)[C@H]3CC[C@@]21C [megestrol-acetate] | 0 | – | 0 | 0 | 0 | – | – | – | – | – | – | – | – | – | – | – | – | – | – | – | – | – | – | – | – | – | – | – | – | – | – | – | – | –
8 | COc1ccc(F)c(F)c1C(=O)c1cnc(NC2CCN(S(C)(=O)=O)CC2)nc1N [R547] | 9 | – | 16.1 | 10.7 | 10.3 | – | – | – | – | – | – | – | – | – | – | – | – | – | – | – | – | – | – | – | – | – | – | – | – | – | – | – | – | –
9 | Cc1ccc(C(C)C)c(O)c1 [thymol] | 0 | – | 0 | 0 | 0 | – | – | – | – | – | – | – | – | – | – | – | – | – | – | – | – | – | – | – | – | – | – | – | – | – | – | – | – | –
10 | Cc1cccc(OCC(O)CNC(C)(C)C)c1C (configuration not stated) [xibenolol] | 0 | 0.7 | – | 0 | 0 | > 10 | 106 | 92.9 | 95.6 | 101 | 103 | – | – | – | – | – | 102 | 97.4 | 99.2 | 94.6 | 110 | – | > 10 | 74.6 | 95.8 | 80.1 | 94.3 | 100 | 104 | 99.3 | 100 | 107 | 95.4 | > 10000
11 | OCCNCCCOc1cccc(Cl)c1Cl [2,3-DCPE] | 0 | 1.5 | 5.1 | 5 | 4.5 | > 10 | 99.1 | 98.6 | 98.1 | 97.5 | 107 | 103 | 96.1 | 89.7 | 97.6 | 13.3 | 105 | 101 | 100 | 101 | 18.1 | 2.96 | 3.21 | 93.9 | 105 | 106 | 98.7 | 69.4 | 92.5 | 96.1 | 103 | 97.9 | 15.5 | 2990
12 | COc1ccc(-c2sc(NC(=O)C(C)(C)C)nc2C)cc1S(=O)(=O)Nc1ccc(O)cc1 [PI4KIII-beta-inhibitor-1] | 2.8 | 1.8 | 0.5 | 0 | 1.1 | – | 115 | 102 | 102 | 91.2 | 66.9 | 105 | 103 | 101 | 90 | 87.6 | 94.9 | 99.6 | 96.7 | 93.1 | 79.1 | > 10 | > 10 | 95.6 | 97 | 91.1 | 90.7 | 74.2 | 102 | 96.4 | 92.9 | 96.1 | 88.8 | > 10000

From the supplement of paper PMC13380429
